# PMC10231375, “HDR, the last enzyme in the MEP pathway, differently regulates isoprenoid biosynthesis in two woody plants” (Plant Physiology, 2023)
# Columns and labels:
# PaHDR1 = tested on: T1, PaHDR1; assay: LC-MS/MS of DMADP + IDP, initial velocities, Lineweaver-Burk; type: biochemical, Picea abies; conditions: anaerobic; 1 mM methyl viologen, 3 mM sodium dithionite, MgCl2; pH 6.5; 30 °C or 35 °C
# T1 construct: gene HDR1; plastid transit peptide removed (borders only in supplemental primers); E. coli BL21-AI; anaerobic glutathione column; [4Fe-4S] enzyme
# PaHDR2 = tested on: T2, PaHDR2; assay: as above; type: biochemical, Picea abies; conditions: anaerobic; 1 mM methyl viologen, 3 mM sodium dithionite, MgCl2; pH 6.5; 30 °C or 35 °C; text calls PaHDR1 the lower-affinity enzyme, against the printed order of Km values; Figure 3 legend
# T2 construct: gene HDR2; plastid transit peptide removed (borders only in supplemental primers); E. coli BL21-AI; anaerobic glutathione column; [4Fe-4S] enzyme
compound,measurement,setting,value
"C/C(=C\COP(=O)(O)OP(=O)(O)O)CO [HMBDP, (E)-4-hydroxy-3-methylbut-2-enyl diphosphate]",Km,PaHDR1,15.9 µM
same,Km,PaHDR2,21.2 µM
